Measured values reported in patent publication US20120052099A1, “PHARMACEUTICAL COMPOSITION CONTAINING ARBIDOL IN THE FORM OF PHOSPHOLIPID NANOPARTICLES” (priority 2009, published 2012).
Entries after “also recorded” stand apart in the source; their conditions may differ. Structures can show the parent of a compound that is named as a salt.

What was measured:
[1] = cited from earlier work
[2] = used internally; cited from earlier work
[3] = Bioaccessibility (pharmacokinetics) after peroral administration in rats; format: in vivo; parameters: area (chromatogram peak), blood: unit not given here; settings: 25 mg/kg
Procedure: 1. The content of an NF Arbidol flask was dissolved in 5 ml. (A) 2. An Arbidol solution was prepared at a concentration of 5 mg/ml (suspension in water). (B) 3. Feed was withdrawn from the animals, leaving them water only, 24 hours before the experiment, and the animals were weighed on the day of the experiment. 4. 1 ml of solution A and B was administered perorally to the rats. 5. Blood was collected at intervals of 5, 10, 15, 30, and 45 minutes into eppendorfs containing EDTA. After an eppendorf was filled, it was shaken intensively. 6. Blood treatment: 900 μl of methanol was added to 100 μl of blood and agitated intensively for 3 to 5 minutes. The mixture was centrifuged to cause sedimentation of proteins. It was then analyzed by high-performance liquid chromatography for presence of Arbidol in the samples.
The dose administered was 25 mg/kg.

whole blood = test: Hemolysis on addition to whole blood in vitro; format: cell-based; settings: 50 μl of 5 mg/ml Arbidol added to 950 μl whole blood, 37° C., 20 minutes
[4] = 10 minutes after administration
[5] = 15 minutes after administration
[6] = 30 minutes after administration

## CCOC(=O)c1c(CSc2ccccc2)n(C)c2cc(Br)c(O)c(CN(C)C)c12 [Arbidol, ethyl ester of 6-bromo-5-hydroxy-1-methyl-4-dimethylaminomethyl-2-phenylthiomethylindole-3-carbonic acid hydrochloride monohydrate]
[1]; ethanol
  solubility in ethanol: dissolved only slightly in ethanol
[1]; water, hydrochloride monohydrate
  solubility in water: practically insoluble in water; also recorded: not soluble in water; also recorded: not dissolved in water
[2]
  T1/2: approximately 17 hours
[3]; 5 minutes after administration
  area (chromatogram peak), blood: 0/0
  concentration in blood: 0/0 μg/ml
[3]; [4]
  area (chromatogram peak), blood: 1.2
  concentration in blood: 0.3 µg/mL
[3]; [5]
  area (chromatogram peak), blood: 7.69
  concentration in blood: 2.4 µg/mL
[3]; [6]
  area (chromatogram peak), blood: 1.6
  concentration in blood: 0.4 µg/mL
Whole blood
  Hemolysis if added to whole blood: causes hemolysis
